Where two headings read alike, the source gives them in different places.
Legend:
[1] = test system: Phospho-ERK levels in KYSE-520 cells; assay: pERK AlphaScreen Protocol; assay type: cell-based; conditions: KYSE-520 cells, 2 hr compound incubation, phospho-ERK1/2 AlphaScreen SureFire, read-out: PERK Avg IC50
Description: KYSE-520 cells (10 k cells/well) were grown in 384-well plate in 20 uL of medium (RPMI-1640, without phenol red, containing 10% FBS) at 37° C. with 5% CO2 overnight. DMSO (control) or increasing concentrations of compounds were diluted in medium, added to the 384-well plate (5 uL/well, final DMSO concentration of 1%), and cells were then incubated with compounds for 2 hr. Phospho-ERK levels were measured using phospho-ERK1/2 AlphaScreen SureFire (PerkinElmer, TGRESB10K) following manufacturer's recommendations. Dose-response curves were analyzed using IC50 regression curve fitting (GeneData Screener). Curves were normalized to a high control without inhibitor (DMSO only), and low control (1 μM selumetinib).

[2] = biological target: PTPN11-E76K mutant enzyme (Homo sapiens (Human), UniProt Q06124, E76K); assay: PTPN11 Enzymatic Assay (DiFMUP phosphatase activity); assay type: biochemical; conditions: DiFMUP 50 μM, 30 min preincubation
Sequence of PTPN11-E76K mutant enzyme (Q06124 whole entry E76K): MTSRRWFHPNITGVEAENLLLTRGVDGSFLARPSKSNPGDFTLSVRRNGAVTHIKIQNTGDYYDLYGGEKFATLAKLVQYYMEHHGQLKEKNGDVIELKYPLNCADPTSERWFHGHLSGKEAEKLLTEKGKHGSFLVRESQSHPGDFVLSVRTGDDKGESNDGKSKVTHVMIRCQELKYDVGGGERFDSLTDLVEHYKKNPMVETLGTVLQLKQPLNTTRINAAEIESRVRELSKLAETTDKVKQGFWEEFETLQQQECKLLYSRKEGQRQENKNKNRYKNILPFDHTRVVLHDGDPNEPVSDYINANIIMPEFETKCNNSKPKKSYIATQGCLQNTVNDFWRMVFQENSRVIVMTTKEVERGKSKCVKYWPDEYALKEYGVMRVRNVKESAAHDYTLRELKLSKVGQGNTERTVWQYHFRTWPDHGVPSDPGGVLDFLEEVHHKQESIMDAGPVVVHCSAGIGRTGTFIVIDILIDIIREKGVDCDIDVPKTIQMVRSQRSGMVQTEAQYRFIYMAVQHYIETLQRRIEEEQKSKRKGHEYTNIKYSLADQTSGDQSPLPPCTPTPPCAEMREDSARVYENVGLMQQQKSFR
Description: Reaction was initiated by addition of DiFMUP (50 μM) at room temperature in 384-well black plate with a final reaction volume of 20 uL in assay buffer. […] Dose-response curves were analyzed using IC50 regression curve fitting (GeneData Screener). Curves were normalized to a high controls without inhibitor, and low controls without enzyme.

[3] = full length PTPN11-E76K mutant enzyme 250 pM, read-out: PTPN11-E76K Avg IC50
[4] = PTPN11-E76K Avg IC50, full length PTPN11-E76K mutant enzyme 250 pM

| SMILES | IC50 ([1]; Homo sapiens, KYSE-520, 2 h) [nM] | IC50 [2, 3] [nM] | IC50 [1] [nM] | IC50 [2, 4] [nM] |
| --- | --- | --- | --- | --- |
| Cc1c(Cl)cccc1-c1n[nH]c2nc(N3CCC(C)(CN)CC3)cnc12 [Example 28, (1-(3-(3-chloro-2-methylphenyl)-1H-pyrazolo[3,4-b]-pyrazin-6-yl)-4-methylpiperidin-4-yl) methanamine] | 190 | 142 | – | – |
| Cc1ncccc1-c1n[nH]c2nc(N3CCC(C)(CN)CC3)cnc12 [Example 30, (4-methyl-1-(3-(2-methylpyridin-3-yl)-1H-pyrazolo[3,4-b]pyrazin-6-yl)-piperidin-4-yl) methanamine] | 1600 | 2510 | – | – |
| COc1cc(-c2n[nH]c3nc(N4CCC(C)(CN)CC4)cnc23)ccc1Cl [Example 33, (1-(3-(4-Chloro-3-methoxyphenyl)-1H-pyrazolo[3,4-b]pyrazin-6-yl)-4-methylpiperidin-4-yl)methanamine] | 96 | 72 | – | – |
| NC1(CO)CCN(c2cnc3c(-c4ccccc4Cl)n[nH]c3n2)CC1 [Example 61, (4-amino-1-(3-(2-chlorophenyl)-1H-pyrazolo[3,4-b]-pyrazin-6-yl)-piperidin-4-yl)-methanol] | 221 | 401 | – | – |
| CC1(N)CCN(c2cnc3c(-c4cccc(F)c4Cl)n[nH]c3n2)CC1 [Example 24, 1-(3-(2-chloro-3-fluorophenyl)-1H-pyrazolo[3,4-b]-pyrazin-6-yl)-4-methyl-piperidin-4-amine] | 142 | 204 | – | – |
| Clc1cccc(-c2n[nH]c3nc(N4CCC5(CCN5)CC4)cnc23)c1Cl [Example 7, 3-(2,3-dichloro-phenyl)-6-(1,7-diaza-spiro[3.5]nonan-7-yl)-1H-pyrazolo[3,4-b]pyrazine] | 79 | 196 | – | – |
| CC1(CN)CCN(c2cnc3c(-c4ccccc4Cl)n[nH]c3n2)CC1 [Example 29] | 87 | 178 | – | – |
| CC1(CN)CCN(c2cnc3c(-c4cccc(C(F)(F)F)c4)n[nH]c3n2)CC1 [Example 22, (4-methyl-1-(3-(3-(trifluoromethyl)-phenyl)-1H-pyrazolo[3,4-b]pyrazin-6-yl)-piperidin-4-yl)-methanamine] | 976 | 1750 | – | – |
| CC1(N)CCN(c2cnc3c(-c4ccc(Cl)cc4)n[nH]c3n2)CC1 [Example 15, 1-(3-(4-Chlorophenyl)-1H-pyrazolo[3,4-b]pyrazin-6-yl)-4-methylpiperidin-4-amine] | 103 | 140 | – | – |
| NC1(CO)CCN(c2cnc3c(-c4c(F)cccc4Cl)n[nH]c3n2)CC1 [Example 121, (4-Amino-1-(3-(2-chloro-6-fluorophenyl)-1H-pyrazolo[3,4-b]pyrazin-6-yl)-piperidin-4-yl)methanol] | 1650 | 1080 | – | – |
| NC1C(F)CCC12CCN(c1cnc3c(-c4cccc(Cl)c4Cl)n[nH]c3n1)CC2 (single isomer, unassigned) [Example 64B, 8-(3-(2,3-Dichlorophenyl)-1H-pyrazolo[3,4-b]pyrazin-6-yl)-2-fluoro-8-azaspiro[4.5]decan-1-amine] | – | – | 70 | 221 |
| CC1(N)CCN(c2cnc3c(-c4cc(Cl)cc(Cl)c4)n[nH]c3n2)CC1 [Example 12, 1-(3-(3,5-dichloro-phenyl)-1H-pyrazolo[3,4-b]-pyrazin-6-yl)-4-methylpiperidin-4-amine] | 623 | 404 | – | – |
| N[C@@H]1CCCC12CCN(c1cnc3c(-c4cccc(Cl)c4F)n[nH]c3n1)CC2 [Example 49, (R)-8-(3-(3-chloro-2-fluorophenyl)-1H-pyrazolo[3,4-b]-pyrazin-6-yl)-8-aza-spiro[4.5]decan-1-amine] | 62 | 143 | – | – |
| CC1(N)CCN(c2cnc3c(-c4cccnc4Cl)n[nH]c3n2)CC1 [Example 23, 1-(3-(2-chloro-pyridin-3-yl)-1H-pyrazolo[3,4-b]-pyrazin-6-yl)-4-methyl-piperidin-4-amine] | 428 | 1820 | – | – |
| N[C@@H]1CCCC12CCN(c1cnc3c(-c4cc(Cl)cc(Cl)c4)n[nH]c3n1)CC2 [Example 45, (R)-8-(3-(3,5-dichloro-phenyl)-1H-pyrazolo[3,4-b]-pyrazin-6-yl)-8-aza-spiro[4.5]decan-1-amine] | 1420 | 355 | – | – |
| N[C@@H]1COCC12CCN(c1cnc3c(-c4ccccc4Cl)n[nH]c3n1)CC2 [Example 39, (S)-8-(3-(2-chloro-phenyl)-1H-pyrazolo[3,4-b]-pyrazin-6-yl)-2-oxa-8-azaspiro[4.5]-decan-4-amine] | 103 | 158 | – | – |

| SMILES | IC50 ([1]; Homo sapiens, KYSE-520, 2 h) [nM] | IC50 [2, 3] [nM] | IC50 [1] [nM] | IC50 [2, 4] [nM] |
| --- | --- | --- | --- | --- |
| CC1(N)CCN(c2cnc3c(-c4ccc(Cl)c(Cl)c4)n[nH]c3n2)CC1 [Example 18, 1-(3-(3,4-dichloro-phenyl)-1H-pyrazolo[3,4-b]-pyrazin-6-yl)-4-methylpiperidin-4-amine] | 667 | 141 | – | – |
| CC1(N)CCN(c2cnc3c(-c4ccnc(O)c4Cl)n[nH]c3n2)CC1 [Example 117, 4-(6-(4-Amino-4-methylpiperidin-1-yl)-1H-pyrazolo[3,4-b]pyrazin-3-yl)-3-chloropyridin-2-ol] | 4780 | 1940 | – | – |
| N[C@@H]1CCCC12CCN(c1cnc3c(-c4ccccc4Cl)n[nH]c3n1)CC2 [Example 54, (R)-8-(3-(2-chlorophenyl)-1H-pyrazolo[3,4-b]-pyrazin-6-yl)-8-aza-spiro[4.5]decan-1-amine] | 64 | 119 | – | – |
| CC1(CN)CCN(c2cnc3c(-c4cccc(N)c4Cl)n[nH]c3n2)CC1 [Example 132, 3-{6-[4-(amino-methyl)-4-methyl-piperidin-1-yl]-1H-pyrazolo[3,4-b]-pyrazin-3-yl}-2-chloroaniline] | 63 | 119 | – | – |
| NC1C(F)(F)CCC12CCN(c1cnc3c(-c4cccc(Cl)c4Cl)n[nH]c3n1)CC2 (single isomer, unassigned) [Example 65B, 8-(3-(2,3-Dichlorophenyl)-1H-pyrazolo[3,4-b]pyrazin-6-yl)-2,2-difluoro-8-azaspiro[4.5]decan-1-amine] | – | – | 165 | 471 |
| NC1C(F)CCC12CCN(c1cnc3c(-c4cccc(Cl)c4Cl)n[nH]c3n1)CC2 (single isomer, unassigned; isomer a) [Example 64A, 8-(3-(2,3-Dichlorophenyl)-1H-pyrazolo[3,4-b]pyrazin-6-yl)-2-fluoro-8-azaspiro[4.5]decan-1-amine, isomer A] | – | – | 34 | 98 |
| CC1(N)CCN(c2cnc3c(-c4ccc(F)c(Cl)c4)n[nH]c3n2)CC1 [Example 19, 1-(3-(3-Chloro-4-fluorophenyl)-1H-pyrazolo[3,4-b]-pyrazin-6-yl)-4-methylpiperidin-4-amine] | 534 | 510 | – | – |
| N[C@@H]1CCCC12CCN(c1cnc3c(-c4ccc(Cl)cc4)n[nH]c3n1)CC2 [Example 17, (R)-8-(3-(4-chloro-phenyl)-1H-pyrazolo[3,4-b]-pyrazin-6-yl)-8-aza-spiro[4.5]decan-1-amine] | 82 | 118 | – | – |
| NC1(CO)CCN(c2cnc3c(-c4ccnc(O)c4Cl)n[nH]c3n2)CC1 [Example 110, 4-(6-(4-Amino-4-(hydroxymethyl)piperidin-1-yl)-1H-pyrazolo[3,4-b]pyrazin-3-yl)-3-chloropyridin-2-ol] | 7850 | 3680 | – | – |
| CC1(CN)CCN(c2cnc3c(-c4ccncc4Cl)n[nH]c3n2)CC1 [Example 31, (1-(3-(3-chloro-pyridin-4-yl)-1H-pyrazolo[3,4-b]-pyrazin-6-yl)-4-methylpiperidin-4-yl) methanamine] | 710 | 929 | – | – |
| CCC1(N)CCN(c2cnc3c(-c4ccnc(N)c4Cl)n[nH]c3n2)CC1 [Example 135, 4-[6-(4-amino-4-ethylpiperidin-1-yl)-1H-pyrazolo[3,4-b]-pyrazin-3-yl]-3-chloropyridin-2-amine] | 122 | 529 | – | – |
| NCC1(O)CCN(c2cnc3c(-c4cccc(F)c4Cl)n[nH]c3n2)CC1 [Example 37, 4-(Aminomethyl)-1-(3-(2-chloro-3-fluorophenyl)-1H-pyrazolo[3,4-b]pyrazin-6-yl)-piperidin-4-ol] | 223 | 623 | – | – |
| N[C@@H]1CCCC12CCN(c1cnc3c(-c4cccc(C(F)(F)F)c4)n[nH]c3n1)CC2 [Example 48, (R)-8-(3-(3-(trifluoromethyl)-phenyl)-1H-pyrazolo[3,4-b]pyrazin-6-yl)-8-azaspiro[4.5]decan-1-amine] | 586 | 1760 | – | – |
| CC1(N)CCN(c2cnc3c(-c4cccc(Cl)c4)n[nH]c3n2)CC1 [Example 10, 1-(3-(3-chloro-phenyl)-1H-pyrazolo[3,4-b]-pyrazin-6-yl)-4-methylpiperidin-4-amine] | 172 | 333 | – | – |
| CC1(CN)CCN(c2cnc3c(-c4ccc(Cl)c(Cl)c4)n[nH]c3n2)CC1 [Example 13, (1-(3-(3,4-dichloro-phenyl)-1H-pyrazolo[3,4-b]-pyrazin-6-yl)-4-methylpiperidin-4-yl) methanamine] | 562 | 158 | – | – |
